Reference: patent US7459441B2, “Remedies for dry eye and diseases associated with dry eye” (Senju Pharmaceutical Co., Ltd., priority 2001, dated 2008)
Where no end group is shown, it is not given here.

How the values were obtained:
[1] = test system: eyes of a Japanese white rabbit; experiment: Lacrimal secretion promotion activity of eye drops (2), Schirmer test with time; assay type: in vivo; settings: for AUC0-120 min, accumulated value of increment of amount of lacrimal secretion after application / increment of amount of lacrimal secretion vs control group / AUC value compared with control group (significance): 0.1 w/v %; for AUC0-120 min, accumulated value of increment of amount of lacrimal secretion after application: 50 μL once to eyes, n = 8, average ± standard error; for increment of amount of lacrimal secretion vs control group: 10 minutes after the administration, n=8 (FIG. 2); for AUC value compared with control group (significance): 120 minutes after the administration, Dunnett-type multiple comparison test
Procedure: In the same manner as that of Test Example 4, Peptide 5 was applied, and an amount of lacrimal secretion was measured. In this test, an amount of lacrimal secretion was measured with time, and the effect was compared with that of VIP.
Preparation of a solution was performed in the same manner as that of Test Example 4, and VIP and Peptide 5 were dissolved in the vehicle at a concentration of 0.1 w/v %, to prepare a test solution.
[…] Measurement of an amount of lacrimal secretion was performed in the same manner as that of Test Example 4.

[2] = test system: isolated lacrimal gland; experiment: Promotion of protein secretion from isolated lacrimal gland; parameters: species or system rabbit; settings: 10^-4 M, treating time 0 to 40 minutes, n=5, Dunnett's test (FIG. 1)
Procedure: An isolated lacimal gland of a rabbit was treated with VIP, or Peptide 5 or 15, and the pharmacological effect of these peptides on increase in an amount of secreted protein was studied.
a) Purified water was added to sodium chloride (137.92 g), potassium chloride (7.01 g), calcium chloride-dihydrate (3.53 g) and magnesium chloride.hexahydrate (1.2 g) and the mixture was made up to a total volume of 1000 mL (Solution 1). Separately, purified water was added to potassium dihydrogen phosphate (8.17 g) and the mixture was made up to a total volume of 500 mL (Solution 2). Solution 1 (50 mL) and Solution 2 (10 mL) were added to 900 mL of purified water, 2.07 g of glucose and 2.1 g of […] were dissolved therein, a total amount was adjusted to 1000 mL (pH about 7.4) to obtain an incubation medium. The incubation medium was bubbled with mixed gas containing 95% oxygen and 5% carbon dioxide.
b) VIP, Peptide 5 or Peptide 15 was dissolved in the incubation medium at a concentration of 10^−4 M to obtain a test solution. […]
a) The piece specimen in the steady state was used, the incubation medium was exchanged with 0.5 mL of a fresh incubation medium, followed by incubation at 37° C. for 20 minutes. This incubation medium was collected, a protein staining reagent (DC Protein assay reagent, Bio Rad) was added thereto, and an amount of protein was measured and expressed as an amount of secreted protein per mg of wet weight. […]
b) The incubation medium of the piece specimen after incubation in a) was exchanged with 0.5 mL of a test solution, and the solution was exchanged and collected at 20 minutes intervals totally five times. A protein staining reagent was added to the collected solution, and an amount of protein was measured. For a piece specimen in a control group, the incubation medium was exchanged similarly, and an amount of protein was measured.

[3] = Digestion test with bronchoalveolar lavage fluid (BALF); assay type: in vitro ADME; settings: rat BALF, 90 minutes; for remaining at 1.5 h, 0.1 mg/mL: male, SD, bronchoalveolar lavage fluid (BALF), pH 7.4, 37° C., read-out: remaining rate (undegraded peptide by HPLC)
Procedure: The effect of highly basified Peptide 5 on digestion with bronchoalveolar lavage fluid was studied.
VIP and Peptide 5 were dissolved (1.1 mg/mL) in a 0.2% Tris-HCl buffer (pH 7.4), and bronchoalveolar lavage fluid (BALF) was added thereto. BALF was obtained by pouring 5 mL of a physiological saline into a trachea of a 8 to 9 week old normal SD male rat (about 350 g) under anesthesia, and recovering the saline, and repeating this procedure totally three times. To 0.5 mL of BALF was added 0.05 mL of a sample solution and the mixture was reacted at 37° C. for 90 minutes, and thereafter an amount of undegraded peptide was measured by HPLC.

[4] = Trypsin digestion test in the presence of chondroitin sulfate; assay type: in vitro ADME; settings: 0.5 mU trypsin, pH 7.5, 37° C., 180 minutes, read-out: remaining rate (undegraded peptide by HPLC)
Procedure: The effect of highly basified Peptide 5 on digestion with trypsin was studied in the presence of chondroitin sulfate.
To 100 μL of a solution of VIP and Peptide 5 (1 mg/mL) was added 400 μL of a solution of chondroitin sulfate (pH 7.5, 100 μg/mL) in a 0.2 M Tris-HCl buffer (pH 7.5). To 100 μL of this solution was added 0.5 mU of trypsin and the mixture was incubated at 37° C. for 180 minutes. Then, an amount of an undegraded peptide was measured by HPLC.

[5] = test system: eyes of a Japanese white rabbit; experiment: Lacrimal secretion promotion activity of eye drops (1), Schirmer test; assay type: in vivo; settings: for Amount of lacrimal secretion (Schirmer's value), After administration: 10 minutes after single 50 μL application; for Amount of lacrimal secretion (Schirmer's value), After administration / amount of lacrimal secretion after vs before application (paired t test): Peptide 5 0.1 w/v %, Peptide 15 2.0 w/v %; for Amount of lacrimal secretion (Schirmer's value), After administration / Amount of lacrimal secretion (Schirmer's value), Before administration: n = 6, mean ± standard error; for Amount of lacrimal secretion (Schirmer's value), Before administration: baseline before single 50 μL application to eyes; for amount of lacrimal secretion after vs before application (paired t test): single application to eyes
Procedure: Peptide 5 or 15 was applied to eyes of a rabbit, and an amount of secreted tears was measured, whereby, the pharmacological effect of these peptides on increase in an amount of lacrimal secretion was studied.
Purified water was added to sodium chloride (0.9 g) and sodium dihydrogen phosphate.dihydrate (0.1 g) to make up to a total volume of 100 mL. Further, an appropriate amount of aqueous sodium hydroxide solution was added so as to adjust pH to 7.0 to obtain a vehicle. Peptide 5 was dissolved in the vehicle at a concentration of 0.1 w/v %, and Peptide 15 was dissolved in the vehicle at a concentration of 2.0 w/v %, to prepare test solutions.
Measurement of an amount of tears was performed by a Schirmer test. To eyes of a Japanese white rabbit, 50 μL of a test solution was applied once, and amounts of lacrimal secretion before and 10 minutes after the application to eyes were measured. Five minutes before measurement of an amount of tears, 10 μL of 0.4 w/v % oxybuprocaine hydrochloride (Anelocal™ eye drops, Senju Pharmaceutical Co., Ltd.) was dropped to topically anesthetize. After tears in palpebra interior conjunctival sac were wiped out using a filter paper, and an amount of lacrimal secretion for 1 minute was measured using a Schirmer test paper (Showa Yakuhin Kako Co., Ltd.).

Row | Compound | AUC0-120 min, accumulated value of increment of amount of lacrimal secretion after application [1] | increment of amount of lacrimal secretion vs control group [1] | AUC value compared with control group (significance) [1] | rate of protein secretion from isolated lacrimal gland vs control group [2] | remaining at 1.5 h, 0.1 mg/mL [3] [%] | remaining at 3 h, 0.2 mg/mL [4] [%] | duration of lacrimal secretion promoting activity compared with VIP ([1]; application to eyes) | Amount of lacrimal secretion (Schirmer's value), After administration [5] [mm/min] | Amount of lacrimal secretion (Schirmer's value), Before administration [5] [mm/min] | amount of lacrimal secretion after vs before application (paired t test) [5] | remaining rate as compared with VIP [3]
1 | CC[C@H](C)[C@H](NC(=O)[C@H](CO)NC(=O)[C@H](CC(N)=O)NC(=O)[C@H](CC(C)C)NC(=O)[C@H](Cc1ccc(O)cc1)NC(=O)[C@H](CCCCN)NC(=O)[C@H](CCCCN)NC(=O)[C@@H](NC(=O)[C@H](C)NC(=O)[C@H](CCSC)NC(=O)[C@H](CCC(N)=O)NC(=O)[C@H](CCCCN)NC(=O)[C@H](CCCNC(=N)N)NC(=O)[C@H](CC(C)C)NC(=O)[C@H](CCCNC(=N)N)NC(=O)[C@@H](NC(=O)[C@H](Cc1ccc(O)cc1)NC(=O)[C@H](CC(N)=O)NC(=O)[C@H](CC(=O)O)NC(=O)[C@@H](NC(=O)[C@H](Cc1ccccc1)NC(=O)[C@@H](NC(=O)[C@H](C)NC(=O)[C@H](CC(=O)O)NC(=O)[C@H](CO)NC(=O)[C@@H](N)Cc1c[nH]cn1)C(C)C)[C@@H](C)O)[C@@H](C)O)C(C)C)C(=O)N[C@@H](CC(C)C)C(=O)N[C@@H](CC(N)=O)C(N)=O [VIP, Vasoactive Intestinal Peptide, reference compound] | 215.0 ± 98.2 ΔSchirmer's value × min. | significantly increased | a significant difference is not recognized | significantly increased | 45.5 | 75 |  |  |  |  | 
2 | HSDAVFTDNYTRLRRQLAVRRYLNSILNGRR-NH2 [Peptide 5] | 359.2 ± 85.0 ΔSchirmer's value × min. | significantly increased | significantly higher value | significantly increased | 80 | 89 | longer-lasting | 8.92 ± 0.45 | 2.00 ± 0.62 | significantly increased | about 1.8 fold
3 | Peptide 15: VIP derivative of formula (I): X1 Lys, X2 Leu, X3 Lys, X4 Lys, X5 chemical bond, X6 -NH2 (HSDAVFTDNYTRLRKQLAVKKYL-NH2) |  |  |  | significantly increased |  |  |  | 7.75 ± 2.16 | 3.25 ± 1.20 | tendency of increase | 
